Assay results from patent US10272098B2, “Chelated drug delivery systems” (Drexel University, priority 2013, dated 2019).
Structures can show the parent of a compound that is named as a salt.

Key:
[1] = cited from earlier work
NIH 3T3 fibroblasts = experiment: Fresh DOX dose- and time-dependent treatment; type: cell-based; conditions: nine-day treatment with 0.2 μg/mL DOX; vs untreated control
Excerpt: The medium was changed every 24 hr.

MDA-MB-231 cells = experiment: Fresh DOX dose- and time-dependent treatment
3T3 fibroblast cells = experiment: Cytotoxicity cell counting assay in 3T3 fibroblasts; type: cell-based; conditions: 24 h; complex with 4 μg MH in 100 μl or 40 μg/mL fresh MH; vs untreated control
Description: After 24 h, cell viability was determined using a cell counting assay (Roche) according to the manufacturer's instruction, and cell morphology was imaged by staining the cells with cresyl violet (0.5 mg/mL) for 30 min after the cells were fixed. In vitro cytotoxicity of the polyelectrolyte MH/DS/metal ion complexes were studied by using 3T3 fibroblast cells. […] Cell morphology was examined after treatment with MH/DS/metal ion complexes (FIGS. 7C-7F).

[2] = systemic administration of 200 mg MH daily (3 mg/kg); human subjects; cited from earlier work

Row | Structure (SMILES) | time stock solution is stable ([1]; 4 degree) | DOX degraded ([1]; cell culture medium at 37° C., 4 days) | time solution is stable ([1]; room temperature, Adriamycin instruction booklets) | cell viability of fibroblasts (NIH 3T3 fibroblasts) | time in which all the cancer cells were completely killed (MDA-MB-231 cells; DOX 0.2 μg/mL) | DOX concentration range that effectively kills cancer cells with minimal fibroblast cytotoxicity (MDA-MB-231 cells; for 5-9 days) | 3T3 fibroblast viability (cell counting assay) (3T3 fibroblast cells) | MH in the cerebrospinal fluid (CSF) [2]
1 | COc1cccc2c1C(=O)c1c(O)c3c(c(O)c1C2=O)C[C@@](O)(C(=O)CO)C[C@@H]3O[C@H]1C[C@H](N)[C@H](O)[C@H](C)O1 [DOX, doxorubicin] | 1 month | 30%-40% | 7 days | did not significantly reduce the cell viability | 8 days | 0.1 to 0.4 µg/mL | – | –
2 | CN(C)c1ccc(O)c2c1C[C@H]1C[C@H]3[C@H](N(C)C)C(O)=C(C(N)=O)C(=O)[C@@]3(O)C(O)=C1C2=O [MH, Minocycline hydrochloride] | – | – | – | – | – | – | no significant difference | about 0.5 μg/mL
